Data taken from patent publication US20160067311A1, “USE OF ELSIGLUTIDE TO TREAT GASTROINTESTINAL MUCOSITIS INCLUDING CHEMOTHERAPY-INDUCED DIARRHEA” (Helsinn Healthcare SA, priority 2014, published 2016).
Peptide text beside a SMILES is read from it.

How the values were obtained:
[1] = Clinical pharmacokinetics of elsiglutide and its metabolites (studies 06-013, TIDE-09-04, TIDE-11-10)
Experimental: (§1) Data on human exposure to elsiglutide generated so far originate from three clinical trials, one performed in healthy subjects (study 06-013) and two in cancer patients (TIDE-09-04, TIDE-11-10). The main objective of the first two studies was the evaluation of the safety, tolerability and maximum tolerated dose (MTD) of ascending elsiglutide doses administered as s.c. (both studies) and i.v. (only study 06-013) bolus injections. In study 06-013 elsiglutide was administered as single i.v. or s.c. bolus, while in study TIDE-09-04 each dose was administered as s.c. bolus on 4 consecutive days. Study TIDE-11-10 was a phase II proof of concept study that mainly evaluated the efficacy of elsiglutide administered as 24 mg daily s.c. bolus injections for 4 consecutive days in preventing CID in patients with colorectal cancer receiving 5-FU based chemotherapy (FOLFOX4 or FOLFIRI regimen). The secondary objectives of all three studies included the evaluation of the pharmacokinetics of elsiglutide and its major metabolites in humans.

[2] = human, in vivo
Experimental: as §1

cancer patients = settings: patients treated with the drug; cited from earlier work

Row | Compound | AUC of ZP2242 relative to that of ZP2712 ([1]; human, plasma) | half-life ([1]; human, plasma) | dose dependence of pharmacokinetics (Cmax and AUC increases proportional to dose) ([1]; study TIDE-09-04, s.c. on 4 consecutive days) | exposure to metabolite relative to exposure to the parent ZP1846 (elsiglutide) [2] | patients in whom diarrhea occurs (cancer patients)
1 | CC[C@H](C)[C@H](NC(=O)[C@H](CC(C)C)NC(=O)[C@H](Cc1c[nH]c2ccccc12)NC(=O)[C@H](C)NC(=O)[C@@H](NC(=O)[C@H](Cc1ccccc1)NC(=O)[C@H](CC(=O)O)NC(=O)[C@H](CCCNC(=N)N)NC(=O)[C@H](C)NC(=O)[C@H](C)NC(=O)[C@H](CC(C)C)NC(=O)[C@H](C)NC(=O)[C@H](CC(=O)O)NC(=O)[C@H](CC(C)C)NC(=O)[C@@H](NC(=O)[C@@H](NC(=O)[C@H](CO)NC(=O)[C@H](CC(C)C)NC(=O)[C@H](CCC(=O)O)NC(=O)[C@H](CO)NC(=O)[C@H](CO)NC(=O)[C@H](Cc1ccccc1)NC(=O)[C@H](CO)NC(=O)CNC(=O)[C@H](CCC(=O)O)NC(=O)CNC(=O)[C@@H](N)Cc1c[nH]cn1)[C@@H](C)O)[C@@H](C)CC)[C@@H](C)CC)C(=O)N[C@@H](C)C(=O)N[C@H](C(=O)N[C@@H](CCCCN)C(=O)N[C@H](C(=O)N[C@H](C(=O)N[C@@H](CC(=O)O)C(=O)N[C@@H](CCCCN)C(=O)O)[C@@H](C)O)[C@@H](C)CC)[C@@H](C)O [ZP2242] (H-HGEGSFSSELSTILDALAARDFIAWLIATKITDK-OH; N-terminus assumed) | at least 10 times | 6 to 9 h | dose independent | > 25 fold | –
2 | CS(=O)(=O)CCNCc1ccc(-c2ccc3ncnc(Nc4ccc(OCc5cccc(F)c5)c(Cl)c4)c3c2)o1 [lapatinib] | – | – | – | – | up to 60%
